Experimental findings from patent publication US10683282B2, “Multi-substituted pyrimidine derivatives with excellent kinase inhibitory activities” (KOREA INSTITUTE OF SCIENCE AND TECHNOLOGY, priority 2018, dated 2020) are described below.

pIC50: −log10 of the molar value.

One data set addresses T1, ARK5/NUAK1 (Homo sapiens, UniProt O60285).
T1 construct: purchased Reaction Biology Corporation
T1 sequence (O60285 1-661): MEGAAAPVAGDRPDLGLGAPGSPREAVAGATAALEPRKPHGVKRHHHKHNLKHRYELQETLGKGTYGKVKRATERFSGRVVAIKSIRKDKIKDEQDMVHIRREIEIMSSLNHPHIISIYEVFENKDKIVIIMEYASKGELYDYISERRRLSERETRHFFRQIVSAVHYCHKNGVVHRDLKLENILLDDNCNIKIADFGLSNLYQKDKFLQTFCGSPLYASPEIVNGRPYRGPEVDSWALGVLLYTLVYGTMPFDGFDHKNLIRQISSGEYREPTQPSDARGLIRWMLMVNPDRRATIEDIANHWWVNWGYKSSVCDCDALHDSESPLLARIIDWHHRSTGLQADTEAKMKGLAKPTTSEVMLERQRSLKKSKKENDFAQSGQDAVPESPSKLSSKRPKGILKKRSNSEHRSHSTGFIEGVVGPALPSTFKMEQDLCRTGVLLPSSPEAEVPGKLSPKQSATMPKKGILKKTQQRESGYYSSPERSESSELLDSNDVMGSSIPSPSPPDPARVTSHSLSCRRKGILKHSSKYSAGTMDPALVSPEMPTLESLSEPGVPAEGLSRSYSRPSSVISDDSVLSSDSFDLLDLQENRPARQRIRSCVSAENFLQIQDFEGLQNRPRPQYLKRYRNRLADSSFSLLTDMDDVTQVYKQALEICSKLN
The data set is described as follows: Kinase screening, HotSpot assay (Reaction Biology). The data set is classed as biochemical. Here is the method:
(§1) Kinase screening was performed using a “HotSpot” assay platform method by Reaction Biology Corporation. The reaction buffer used herein contained 20 mM HEPES (pH 7.5), 10 mM MgCl2, 1 mM EGTA, 0.02% Brij35, 0.02 mg/mL BSA, 0.1 mM Na3VO4, 2 mM DTT and 1% DMSO. The required cofactors were added in accordance with the kinase reaction. Freshly made buffer and cofactors were added at a concentration of 20 μM during the selected enzyme reaction. A solution of the test compound in dimethylsulfoxide (DMSO) was added at a suitable concentration to this solution. In order to initiate reaction, […] (specific activity […]) was added and incubated at room temperature for 2 hours. The test compound was screened at a starting concentration of 20 μM in a 10-dose IC50 mode. IC50 of Staurosporine used as a control drug was obtained at a starting concentration of 20 μM in a 10-dose IC50 mode.

Another data set has as its system Ba/F3 parental. The data set can be described thus: Ba/F3 parental growth inhibition. The data set is classed as cell-based. The conditions noted are these: Mus musculus, BaF3; Ba/F3 parental cells.
In the next data set the test system is HFL-1. The data set can be described thus: Cytotoxicity test (cell counting kit-8). The following applies: Homo sapiens, HFL1, WST-8. The data set is classed as cell-based. The text has this: (§2) Cell counting kit-8 assay is a general test method for identifying cell viability using a pale yellow tetrazolium salt called “WST-8”. WST-8, which is soluble in water, is degraded by a dehydrogenase present in the cells, forming orange formazan. Formazan dye is formed by dehydrogenase activity proportional to the number of viable cells, and thus can be used as an indicator for cell viability. The Hill equation of Graphpad Prism was used for analysis.

In the next data set the test system is L929. The data set can be described thus: Cytotoxicity test (cell counting kit-8). The following applies: Mus musculus, WST-8. The data set is classed as cell-based.
Excerpt: as §2

The next data set deals with NIH3T3. The data set is described as follows: Cytotoxicity test (cell counting kit-8). The data set is classed as cell-based. The conditions noted are these: Mus musculus, WST-8.
Excerpt: as §2

The next data set has as its target CYP 2C9 (Homo sapiens, UniProt P11712). The data set is described as follows: CYP450 assay (luminescence). The data set is classed as in vitro ADME. The following applies: CYP 2C9 enzyme with substrate, compound at 10 μM, read-out: inhibitory activity against human CYP 2C9. Here is the method:
(§3) The resulting substance was reacted with NADPH for 20 minutes at 37° C. and a detection reagent was added to terminate the reaction. After stabilization at room temperature for 20 minutes, a luminescence signal was measured.

Another data set addresses CYP 2D6 (Homo sapiens, UniProt P10635). The data set can be described thus: CYP450 assay (luminescence). The data set is classed as in vitro ADME. The conditions noted are these: CYP 2D6 enzyme with substrate, compound at 10 μM, read-out: inhibitory activity against human CYP 2D6. Here is the method:
as §3

The target of a further data set is CYP 2C19 (Homo sapiens, UniProt P33261). The data set can be described thus: CYP450 assay (luminescence). The data set is classed as in vitro ADME. The conditions noted are these: CYP 2C19 enzyme with substrate, compound at 10 μM, read-out: inhibitory activity against human CYP 2C19. Here is the method: as §3
CYP 2C19, sequence (P33261 whole entry): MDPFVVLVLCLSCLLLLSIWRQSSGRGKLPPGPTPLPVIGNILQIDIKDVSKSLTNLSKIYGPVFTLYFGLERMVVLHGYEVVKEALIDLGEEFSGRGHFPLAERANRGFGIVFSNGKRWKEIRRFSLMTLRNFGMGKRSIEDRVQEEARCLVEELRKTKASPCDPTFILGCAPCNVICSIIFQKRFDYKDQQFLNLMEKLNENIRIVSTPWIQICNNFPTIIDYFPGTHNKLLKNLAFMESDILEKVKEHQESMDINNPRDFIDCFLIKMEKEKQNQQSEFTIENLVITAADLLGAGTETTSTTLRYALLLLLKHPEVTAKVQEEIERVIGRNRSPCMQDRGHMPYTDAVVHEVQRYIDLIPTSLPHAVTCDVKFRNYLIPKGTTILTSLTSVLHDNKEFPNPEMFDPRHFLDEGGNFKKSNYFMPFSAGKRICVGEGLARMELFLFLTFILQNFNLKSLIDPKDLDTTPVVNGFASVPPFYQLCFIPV
A further data set has as its system CHO-K1. The data set is described as follows: Cytotoxicity test (cell counting kit-8). The data set is classed as cell-based, Chinese hamster. The conditions noted are these: Cricetulus griseus, WST-8.
Excerpt: as §2

The next data set addresses CYP 1A2 (Homo sapiens, UniProt P05177). The data set can be described thus: CYP450 assay (luminescence). The data set is classed as in vitro ADME. The following applies: human, CYP 1A2 enzyme with substrate; compound at 10 μM; read-out: inhibitory activity against human CYP 1A2. Here is the method:
(§4) Compound 5 and a positive control stock solution were diluted with water to prepare a 40 μM working solution, and a solution containing an enzyme and a substrate was prepared using water and buffer. Compound 5/control/positive control and the solution were each dispensed on a 96-well and preincubated at 37° C. for 10 minutes. The resulting substance was reacted with NADPH for 20 minutes at 37° C. and a detection reagent was added to terminate the reaction. After stabilization at room temperature for 20 minutes, a luminescence signal was measured.

The target in the next data set is CYP 3A4 (Homo sapiens, UniProt P08684). The data set can be described thus: CYP450 assay (luminescence). The data set is classed as in vitro ADME. The following applies: CYP 3A4 enzyme with substrate, compound at 10 μM, read-out: inhibitory activity against human CYP 3A4. Here is the method: as §4
CYP 3A4, sequence (P08684 whole entry): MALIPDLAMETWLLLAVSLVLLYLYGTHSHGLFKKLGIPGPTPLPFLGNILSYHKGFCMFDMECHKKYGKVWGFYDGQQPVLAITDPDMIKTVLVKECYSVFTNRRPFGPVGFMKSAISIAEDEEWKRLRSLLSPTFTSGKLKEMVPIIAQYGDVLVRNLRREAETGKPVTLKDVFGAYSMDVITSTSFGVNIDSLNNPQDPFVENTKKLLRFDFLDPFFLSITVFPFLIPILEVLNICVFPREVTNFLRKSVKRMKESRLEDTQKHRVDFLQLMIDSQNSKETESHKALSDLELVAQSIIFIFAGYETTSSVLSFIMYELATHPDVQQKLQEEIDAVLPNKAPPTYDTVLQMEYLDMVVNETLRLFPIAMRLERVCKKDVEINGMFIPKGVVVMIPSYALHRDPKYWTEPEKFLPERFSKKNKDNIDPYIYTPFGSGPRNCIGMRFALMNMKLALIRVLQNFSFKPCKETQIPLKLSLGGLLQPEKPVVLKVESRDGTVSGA
The nature of data set [1]: Cytotoxicity test (cell counting kit-8), summary over respective cells. The data set is classed as cell-based. The following applies: African green monkey, human, mouse, Chinese hamster, NIH3T3 and CHO-K1 cells; criterion 10 μM; VERO, HFL-1, L929, NIH3T3, CHO-K1.
Excerpt: as §2

For the next data set, the target named is T2, FLT3 (D835Y) (Homo sapiens, UniProt P36888, D835Y).
T2 construct: purchased Reaction Biology Corporation
The data set can be described thus: FLT3 mutant enzyme activity, HotSpot assay. The data set is classed as biochemical. The following applies: ATP 10 μM. Here is the method:
as §1

The target of another data set is FLT3 (ITD)-NPOS (Homo sapiens, UniProt P36888). The data set can be described thus: FLT3 mutant enzyme activity, HotSpot assay. The data set is classed as biochemical. The conditions noted are these: ATP 10 μM. Here is the method:
as §1

The target in another data set is FLT3 (ITD) (Homo sapiens, UniProt P36888). The data set is described as follows: FLT3 mutant enzyme activity, HotSpot assay. The following applies: ATP 10 μM. The data set is classed as biochemical. Here is the method: as §1
For a further data set, the system named is Ba/F3 FLT3-ITD. The data set is described as follows: Ba/F3 FLT3-ITD growth inhibition. The data set is classed as cell-based. The following applies: Ba/F3 FLT3-ITD cells.

CYP 1A2, sequence (P05177 whole entry): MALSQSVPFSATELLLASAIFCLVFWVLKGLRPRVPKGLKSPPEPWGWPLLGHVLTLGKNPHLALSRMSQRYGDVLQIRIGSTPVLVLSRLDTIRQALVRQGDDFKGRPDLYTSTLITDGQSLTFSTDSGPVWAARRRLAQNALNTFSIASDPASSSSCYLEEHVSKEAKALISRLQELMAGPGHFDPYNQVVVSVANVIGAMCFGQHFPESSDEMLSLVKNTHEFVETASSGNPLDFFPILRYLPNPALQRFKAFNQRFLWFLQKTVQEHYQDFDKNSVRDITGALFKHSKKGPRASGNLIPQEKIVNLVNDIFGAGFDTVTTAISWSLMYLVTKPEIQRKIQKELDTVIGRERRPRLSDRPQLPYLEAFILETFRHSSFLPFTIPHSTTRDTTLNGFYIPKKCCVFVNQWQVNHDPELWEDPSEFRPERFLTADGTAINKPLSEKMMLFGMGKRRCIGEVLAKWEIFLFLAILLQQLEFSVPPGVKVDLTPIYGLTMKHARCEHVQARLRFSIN
CYP 2C9, sequence (P11712 whole entry): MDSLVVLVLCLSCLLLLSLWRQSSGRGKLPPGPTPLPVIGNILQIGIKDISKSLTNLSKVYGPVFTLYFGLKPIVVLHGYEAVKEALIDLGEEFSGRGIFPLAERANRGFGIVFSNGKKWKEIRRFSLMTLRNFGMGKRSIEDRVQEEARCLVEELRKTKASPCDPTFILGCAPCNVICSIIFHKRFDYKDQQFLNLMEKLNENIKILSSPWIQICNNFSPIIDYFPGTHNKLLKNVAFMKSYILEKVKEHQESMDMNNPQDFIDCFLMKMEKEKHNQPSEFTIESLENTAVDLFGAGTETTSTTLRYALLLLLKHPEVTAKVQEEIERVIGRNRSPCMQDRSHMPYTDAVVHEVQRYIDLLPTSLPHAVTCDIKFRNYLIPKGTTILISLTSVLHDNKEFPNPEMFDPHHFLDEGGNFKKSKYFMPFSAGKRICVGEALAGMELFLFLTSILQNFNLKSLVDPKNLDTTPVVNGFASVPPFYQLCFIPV
CYP 2D6, sequence (P10635 whole entry): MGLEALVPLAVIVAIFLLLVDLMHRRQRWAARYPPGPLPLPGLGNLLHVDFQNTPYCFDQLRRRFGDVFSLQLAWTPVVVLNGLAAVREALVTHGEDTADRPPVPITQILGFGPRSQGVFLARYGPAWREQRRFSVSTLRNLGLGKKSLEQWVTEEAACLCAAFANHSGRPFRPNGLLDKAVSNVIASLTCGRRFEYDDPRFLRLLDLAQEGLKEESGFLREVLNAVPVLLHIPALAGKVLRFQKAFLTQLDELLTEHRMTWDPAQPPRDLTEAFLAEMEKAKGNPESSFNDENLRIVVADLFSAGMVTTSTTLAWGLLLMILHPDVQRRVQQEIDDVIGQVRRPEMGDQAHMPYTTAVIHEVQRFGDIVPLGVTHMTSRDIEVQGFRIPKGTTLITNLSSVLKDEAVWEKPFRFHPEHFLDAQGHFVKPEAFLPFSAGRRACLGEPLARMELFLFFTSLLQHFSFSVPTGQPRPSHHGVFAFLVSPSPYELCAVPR

In the case of `Clc1cnc(Nc2ccc(OCCN3CCCC3)cc2)nc1NCc1ccco1` [Compound 5, 5-chloro-4-(furan-2-yl)methylamino-2-[4-{2-(pyrrolidin-1-yl)ethoxy}phenylamino]pyrimidine], the pIC50 against ARK5/NUAK1 was 8.62; in [1], no more than 5.00; against FLT3 (D835Y), greater than 9.00; at FLT3 (ITD)-NPOS it was 8.35; at FLT3 (ITD), 8.82. For the same compound, the GI50 in the data set with Ba/F3 parental is 1820 nM; with Ba/F3 FLT3-ITD, 42 nM. In addition, the IC50 is 35.6 µM with HFL-1, 40.3 µM with L929, greater than 100 µM in the data set with NIH3T3 and greater than 100 µM with CHO-K1. In addition, the inhibition at 20 min, 10 µM at CYP 2C9 was less than 1%; on CYP 2D6, 14.4%; on CYP 2C19 it was 15.9%; on CYP 1A2 it was 1.93%; at CYP 3A4, 22.1%.
